We go through one sequence from patent US20240415920A1, “PEPTIDE HAVING ACTIVITY OF PREVENTING HAIR LOSS OR PROMOTING HAIR GROWTH, AND USE THEREOF” (CAREGEN CO., LTD., priority 2021, published 2024).

Common to all, as to assay type: cell-based, human
Experiment [1] has as its system Keratin 5. The experiment is described as follows: RT-PCR of Keratin 5 expression in HHORSC. As to conditions: peptide 10 nM, 100 nM, 1 μM, 72 hours, FIG. 6. The procedure: (§1) Using the peptide of the present invention consisting of the amino acid sequence of SEQ ID NO: 1 prepared according to Preparation Example above, it was confirmed whether it promotes the activity of outer root sheath cells, a type of cell that forms hair follicles.
(§2) Specifically, HHORSC (human hair outer root sheath cell, Sciencell, USA) was seeded in a 6-well culture plate at 4×10^5 cells/well and then cultured in MSC complete medium (mesenchymal stem cell complete media) for 24 hours. Next, the medium was replaced with serum free MSC complete medium and cultured again for 24 hours. Then, the HHORSC was treated with the peptide of Preparation Example consisting of amino acid sequence of SEQ ID NO: 1 at concentrations of 10 nM, 100 nM, and 1 μM, respectively, and cultured at 37° C. for 72 hours. […] Then, CDNA was synthesized using a cDNA synthesis kit (enzynomics, Korea) by quantification using nano drop, and PCR was performed using primers for Ha3-II, Keratin 5, Keratin 14, and Keratin 19 (the base sequences of each primer are shown in Table 3 below) and PCR premix (enzynomics, Korea). Electrophoresis was performed on a 1.5% agarose gel, and the mRNAs of Ha3-II, Keratin 5, Keratin 14, and Keratin 19 were detected using a band analysis system (Bio-Rad gel image system).

The subject of experiment [2] is Keratin 14. The experiment is described as follows: RT-PCR of Keratin 14 expression in HHORSC. As to conditions: peptide 10 nM, 100 nM, 1 μM, 72 hours, FIG. 6. The procedure: as §1, §2
The subject of experiment [3] is p-AKT. The experiment is described as follows: Western blotting of phosphorylated AKT in HHFDPC. The conditions noted are these: peptide 10 nM, 100 nM, 1 μM, 24 hours, FIG. 2. From the text: (§3) In the HHFDPC treated with the peptide of the present invention, changes in related factors that affect cell proliferation or differentiation were confirmed to determine whether the peptide of the present invention could promote proliferation and differentiation of HHFDPC by increasing them.
(§4) First, phosphorylated forms of AKT and ERK, which act as signaling molecules related to the proliferation of HHFDPC, were confirmed through Western blotting. Specifically, HHFDPC as in [Experiment Example 1-1] above was seeded at 4λ10^5 cells/well in a 6-well culture plate, cultured in MSC complete medium (mesenchymal stem cell complete media) for 24 hours, and then the medium was replaced with serum free MSC complete medium and cultured for another 24 hours. Then, the HHFDPC was treated with the peptide of SEQ ID NO: 1 prepared in the Preparation Example at concentrations of 10 nM, 100 nM, and 1 μM, respectively, and cultured at 37° C. for 24 hours. As a positive control, minoxidil was treated at a concentration of 1 μM, and as a negative control, HHFDPC without any treatment was used. Then, Western blotting was performed to detect phosphorylated AKT and phosphorylated ERK. […] After washing again with 0.1% PBS-T (0.1% Tween-20 in PBS) three times for 15 minutes each, p-AKT and p-ERK were detected by treatment with ECL solution (GE Healthcare, USA).

Experiment [4] relates to Keratin 19. The experiment is described as follows: RT-PCR of Keratin 19 expression in HHORSC. The conditions noted are these: peptide 10 nM, 100 nM, 1 μM, 72 hours, FIG. 6. As to the method:
as §1, §2

Experiment [5] deals with p-ERK. The experiment is described as follows: Western blotting of phosphorylated ERK in HHFDPC. The conditions noted are these: peptide 10 nM, 100 nM, 1 μM, 24 hours, FIG. 2.
Description: as §3, §4
(In general: Immunoblotting shows a protein as a band on a membrane.)

The test system of experiment [6] is Ha3-II. The experiment is described as follows: RT-PCR of Ha3-II expression in HHORSC. The conditions noted are these: peptide 10 nM, 100 nM, 1 μM, 72 hours, FIG. 6. As to the method:
as §1, §2

Experiment [7] has as its system HHFDPC. The experiment in a line: Proliferation of dermal papilla cells (MTT, absorbance at 540 nm). The conditions noted are these: 72 hours, FIG. 1. As to the method: While culturing human hair follicle dermal dermal papilla cells (HHFDPC), the absorbance was measured after treatment with the peptide of the present invention to confirm whether there was an effect of promoting the proliferation of the HHFDPC dermal papilla cells.
Specifically, HHFDPC (Sciencell, USA) was seeded at 4λ10^3 cells/well in a 96-well culture plate, cultured in MSC complete medium stem (mesenchymal cell complete media, Sciencell, USA) for 24 hours, and then the medium was replaced with serum free MSC complete medium and cultured for another 24 hours. Then, the HHFDPC was treated with the peptide from Preparation Example consisting of amino acid sequence of SEQ ID NO: 1 at concentrations of 10 nM, 100 nM, and 1 μM, respectively, and cultured at 37° C. for 72 hours. As a positive control, minoxidil was treated at a concentration of 1 μM, and as a negative control, HHFDPC without any treatment was used. Then, 10 μl of 5 mg/mL MTT solution was added and cultured in a 37° C. CO2 incubator for 4 hours to stain the cells. After removing the medium, the cells were treated with 100 μl of DMSO and shaken for 10 minutes, and the number of HHFDPC cells was confirmed by measuring absorbance at a wavelength of 540 nm using a spectrophotometer.

Take “GCGLFVAAC [peptide of the present invention]”: the “Keratin 5 mRNA amount compared to the control group without treatment” value in experiment [1] was “the amount of mRNA increased further”. Also, the “Keratin 14 mRNA amount compared to the control group without treatment” value in experiment [2] is “the amount of mRNA increased further”. For the same sequence, the “phosphorylation of AKT (p-AKT) compared to the control group not treated with the peptide” value in experiment [3] was “phosphorylation was found to be increased”. In experiment [4], the “Keratin 19 mRNA amount compared to the control group without treatment” value was “the amount of mRNA increased further”. Besides, the “phosphorylation of ERK (p-ERK) compared to the control group not treated with the peptide” value in experiment [5] is listed as “phosphorylation was found to be increased”. In addition, the “Ha3-II mRNA amount compared to the control group without treatment” value in experiment [6] is “the amount of mRNA increased further”. In experiment [7] (peptide 10 nM, 100 nM, 1 μM), the “absorbance (cell proliferation) compared to the untreated control group” value is listed as “the absorbance was measured to be higher”. Moreover, in experiment [7] (peptide 1 μM), the “proliferation promotion effect compared to the positive control group (minoxidil 1 μM)” value was “showed a better proliferation promotion effect than the positive control group”.
